Laboratory results: patent US20260355196A1, “INHIBITORS AND DEGRADERS OF PIP4K PROTEIN” (Larkspur Biosciences, Inc., priority 2023, published 2026)

biological target: T1, PIP4K2C (Homo sapiens, UniProt Q8TBX8); assay: Enzyme Binding Assay (KINOMEscan): active site-directed competition binding to an immobilized ligand; design: purchased Eurofins DiscoverX, San Diego, CA 87-0007-1094; details: 11-point dose response, duplicate, top concentration 5 micromolar; read-out: Pip4k2c Kd: IC50
T1 sequence (Q8TBX8 1-421): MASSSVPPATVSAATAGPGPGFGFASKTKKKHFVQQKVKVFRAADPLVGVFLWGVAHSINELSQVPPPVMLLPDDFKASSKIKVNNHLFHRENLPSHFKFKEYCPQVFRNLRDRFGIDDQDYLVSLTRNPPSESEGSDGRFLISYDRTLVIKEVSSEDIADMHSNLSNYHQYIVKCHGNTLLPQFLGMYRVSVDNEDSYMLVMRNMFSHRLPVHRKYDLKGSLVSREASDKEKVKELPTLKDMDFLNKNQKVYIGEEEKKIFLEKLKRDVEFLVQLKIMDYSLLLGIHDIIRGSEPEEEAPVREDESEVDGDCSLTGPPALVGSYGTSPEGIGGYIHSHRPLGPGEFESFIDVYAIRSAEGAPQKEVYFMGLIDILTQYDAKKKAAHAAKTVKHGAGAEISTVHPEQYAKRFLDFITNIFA
Summary of the method: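 Active site-directed competition binding against an immobilized ligand. 11-point dose-response in duplicate, top concentration 5 micromolar; IC50 from a Hill equation fitted by the Levenberg-Marquardt algorithm.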

| SMILES | IC50 |
| --- | --- |
| CC(=O)N[C@H]1CC[C@H](Nc2ncc(Cl)c(C3CCCN(C(=O)C4CC4)C3)n2)CC1 (stereo partly drawn) [Compound 100, trans-N-(4-((5-chloro-4-(1-(cyclopropanecarbonyl)piperidin-3-yl)pyrimidin-2-yl)amino)cyclohexyl)acetamide] | < 500 nM |
| CNC(=O)[C@H]1C[C@@H](Nc2ncc(Cl)c(-c3cccc(-c4ccc(F)cc4)n3)n2)C1 [Compound 115, cis-3-((5-chloro-4-(6-(4-fluorophenyl)pyridin-2-yl)pyrimidin-2-yl)amino)-N-methylcyclobutane-1-carboxamide] | < 500 nM |
| CC(=O)N1CCC(Nc2ncc(F)c(-c3cccc(N4CCC(O)CC4)c3)n2)CC1 [Compound 211, 1-(4-((5-fluoro-4-(3-(4-hydroxypiperidin-1-yl)phenyl)pyrimidin-2-yl)amino)piperidin-1-yl)ethan-1-one] | < 500 nM |
| NC(=O)[C@H]1CC[C@H](Nc2ncc(F)c(-c3cccc(N4CCOCC4=O)c3)n2)CC1 [Compound 268, trans-4-((5-fluoro-4-(3-(3-oxomorpholino)phenyl)pyrimidin-2-yl)amino)cyclohexane-1-carboxamide] | < 500 nM |
| CC(=O)N[C@H]1CC[C@H](Nc2ncc(Cl)c(-c3cnn(C4CC4)c3)n2)CC1 [Compound 116, trans-N-((1r,4r)-4-((5-chloro-4-(1-cyclopropyl-1H-pyrazol-4-yl)pyrimidin-2-yl)amino)cyclohexyl)acetamide] | < 500 nM |
| NC(=O)[C@@H]1CCC[C@H](Nc2ncc(Cl)c(-c3cccc(-n4ccccc4=O)c3)n2)C1 (relative stereo) [Compound 136, cis-3-((5-chloro-4-(3-(2-oxopyridin-1 (2H)-yl)phenyl)pyrimidin-2-yl)amino)cyclohexane-1-carboxamide] | < 500 nM |
| CN1CC(Nc2ncc(Cl)c(-c3cccc(-c4ccccc4)c3)n2)CCC1=O (centres unmarked) [Compound 14, 5-((4-([1,1′-biphenyl]-3-yl)-5-chloropyrimidin-2-yl)amino)-1-methylpiperidin-2-one] | < 500 nM |
| NC(=O)[C@H]1CCC[C@@H](Nc2ncc(F)c(-c3cccc(N4CCCOC4=O)c3)n2)C1 (relative stereo) [Compound 227, cis-3-((5-fluoro-4-(3-(2-oxo-1,3-oxazinan-3-yl)phenyl)pyrimidin-2-yl)amino)cyclohexane-1-carboxamide] | < 500 nM |
| CC(=O)N1CCC(Nc2ncc(F)c(-c3cccc(C(=O)N4CC[C@@H](O)C4)c3)n2)CC1 [Compound 213, (R)-1-(4-((5-fluoro-4-(3-(3-hydroxypyrrolidine-1-carbonyl)phenyl)pyrimidin-2-yl)amino)piperidin-1-yl)ethan-1-one] | < 500 nM |
| CC(=O)N1CCC(Nc2ncc(F)c(-c3cccc(N4CCCOC4=O)c3)n2)CC1 [Compound 220, 3-[3-[2-[(1-acetyl-4-piperidyl)amino]-5-fluoro-pyrimidin-4-yl]phenyl]-1,3-oxazinan-2-one] | < 500 nM |
| CC(=O)N1CCC[C@H](Nc2ncc(Cl)c(-c3cccc(-c4cccc(=O)[nH]4)c3)n2)C1 [Compound 157, (S)-6-(3-(2-((1-acetylpiperidin-3-yl)amino)-5-chloropyrimidin-4-yl)phenyl)pyridin-2(1H)-one] | < 500 nM |
| CC(=O)N1CCC[C@H](Nc2ncc(Cl)c(N3CCCC(c4ccccc4)C3)n2)C1 (stereo partly drawn) [Compound 35, 1-((3S)-3-((5-chloro-4-(3-phenylpiperidin-1-yl)pyrimidin-2-yl)amino)piperidin-1-yl) ethan-1-one] | < 500 nM |
| CNC(=O)[C@H]1CC[C@@H](Nc2ncc(Cl)c(-c3cnn(C4CC4)c3)n2)CC1 [Compound 107, cis-(1s,4s)-4-((5-chloro-4-(1-cyclopropyl-1H-pyrazol-4-yl)pyrimidin-2-yl)amino)-N-methylcyclohexane-1-carboxamide] | 500 to 1000 nM |
| CC(=O)N[C@H]1CC[C@H](Nc2ncc(F)c(-c3cccc(C4COC4)c3)n2)CC1 [Compound 175, N-(trans-4-((5-fluoro-4-(3-(oxetan-3-yl)phenyl)pyrimidin-2-yl)amino)cyclohexyl)acetamide] | < 500 nM |
| CC(=O)N[C@H]1CC[C@H](Nc2ncc(F)c(-c3cccc(N4CCCCC4=O)c3)n2)CC1 [Compound 256, trans-N-(4-((5-fluoro-4-(3-(2-oxopiperidin-1-yl)phenyl)pyrimidin-2-yl)amino)cyclohexyl)acetamide] | < 500 nM |
| CC(=O)N1CCC(Nc2ncc(F)c(-c3cccc(N4CCOCC4=O)c3)n2)CC1 [Compound 206, 4-(3-(2-((1-acetylpiperidin-4-yl)amino)-5-fluoropyrimidin-4-yl)phenyl)morpholin-3-one] | < 500 nM |
| CNC(=O)[C@H]1C[C@@H](Nc2ncc(Cl)c(-c3cccc(-c4ccc[nH]c4=O)c3)n2)C1 [Compound 156, cis-3-((5-chloro-4-(3-(2-oxo-1,2-dihydropyridin-3-yl)phenyl)pyrimidin-2-yl)amino)-N-methylcyclobutane-1-carboxamide] | < 500 nM |
| CC(=O)N[C@H]1CC[C@H](Nc2ncc(F)c(-c3cccc(C4CCCN(C(C)=O)C4)c3)n2)CC1 (stereo partly drawn) [Compound 174, trans-N-(4-((4-(3-(1-acetylpiperidin-3-yl)phenyl)-5-fluoropyrimidin-2-yl)amino)cyclohexyl)acetamide] | < 500 nM |
| NC(=O)[C@H]1CC[C@@H](Nc2ncc(Cl)c(-c3ccc(F)cc3)n2)CC1 [Compound 25, cis-4-((5-chloro-4-(4-fluorophenyl)pyrimidin-2-yl)amino)cyclohexane-1-carboxamide] | 500 to 1000 nM |
| CC(=O)N[C@H]1CC[C@@H](Nc2ncc(Cl)c(-c3cnn(C4CC4)c3)n2)CC1 [Compound 99, cis-N-((1s,4s)-4-((5-chloro-4-(1-cyclopropyl-1H-pyrazol-4-yl)pyrimidin-2-yl)amino)cyclohexyl)acetamide] | 500 to 1000 nM |
| CC(C)(O)c1cc(-c2nc(N[C@H]3CC[C@H](C(N)=O)CC3)ncc2F)ccn1 [Compound 242, trans-4-((5-fluoro-4-(2-(2-hydroxypropan-2-yl)pyridin-4-yl)pyrimidin-2-yl)amino)cyclohexane-1-carboxamide] | < 500 nM |
| NC(=O)[C@H]1CCC[C@@H](Nc2ncc(F)c(-c3cccc(-c4cc[nH]c(=O)c4)c3)n2)C1 (relative stereo) [Compound 200, cis-3-((5-fluoro-4-(3-(2-oxo-1,2-dihydropyridin-4-yl)phenyl)pyrimidin-2-yl)amino)cyclohexane-1-carboxamide] | < 500 nM |

Other lines, results leading:

| IC50 | SMILES |
| --- | --- |
| 500 to 1000 nM | CC(=O)N1CCCC(Nc2ncc(Cl)c(-c3ccc(F)cc3)n2)C1 (centres unmarked) [Compound 26, 1-(3-((5-chloro-4-(4-fluorophenyl)pyrimidin-2-yl)amino)piperidin-1-yl)ethan-1-one] |
| < 500 nM | CC(=O)N[C@H]1CC[C@H](Nc2ncc(F)c(-c3ccnc(N4CCOC4=O)c3)n2)CC1 [Compound 253, trans-N-((1r,4r)-4-((5-fluoro-4-(2-(2-oxooxazolidin-3-yl)pyridin-4-yl)pyrimidin-2-yl)amino)cyclohexyl)acetamide] |
| < 500 nM | NC(=O)[C@@H]1CCC[C@H](Nc2ncc(F)c(-c3cccc(C4CCC4)c3)n2)C1 (relative stereo) [Compound 38, cis-3-((4-(3-cyclobutylphenyl)-5-fluoropyrimidin-2-yl)amino)cyclohexane-1-carboxamide] |
| < 500 nM | CC(=O)N[C@H]1CC[C@H](Nc2ncc(F)c(-c3cccc(N4CCCCC4=O)n3)n2)CC1 [Compound 625, N-(trans-4-((5-fluoro-4-(6-(2-oxopiperidin-1-yl)pyridin-2-yl)pyrimidin-2-yl)amino)cyclohexyl) acetamide] |
| < 500 nM | CC(=O)N[C@H]1CC[C@H](Nc2ncc(F)c(-c3cccc(C4CC4)c3)n2)CC1 [Compound 619, trans-N-((1r,4r)-4-((4-(3-cyclopropylphenyl)-5-fluoropyrimidin-2-yl)amino)cyclohexyl)acetamide] |
| < 500 nM | CC(=O)N[C@H]1CC[C@H](Nc2ncc(F)c(-c3cccc(-c4cc[nH]c(=O)c4)c3)n2)CC1 [Compound 188, trans-N-(4-((5-fluoro-4-(3-(2-oxo-1,2-dihydropyridin-4-yl)phenyl)pyrimidin-2-yl)amino)cyclohexyl)acetamide] |
| < 500 nM | CC(=O)N1CCCC(c2cccc(-c3nc(N[C@@H]4CCC[C@H](C(N)=O)C4)ncc3F)c2)C1 (relative stereo) [Compound 178, cis-3-((4-(3-(1-acetylpiperidin-3-yl)phenyl)-5-fluoropyrimidin-2-yl)amino)cyclohexane-1-carboxamide] |
| < 500 nM | CC(=O)N1CCC(Nc2ncc(F)c(-c3cccc(N4C[C@@H](O)CC4=O)c3)n2)CC1 [Compound 230, (4S)-1-[3-[2-[(1-acetyl-4-piperidyl)amino]-5-fluoro-pyrimidin-4-yl]phenyl]-4-hydroxy-pyrrolidin-2-one] |
| < 500 nM | CC(=O)N1CCC(Nc2ncc(Cl)c(-c3cccc(-c4ccc(F)cc4)n3)n2)CC1 [Compound 114, 1-(4-((5-chloro-4-(6-(4-fluorophenyl)pyridin-2-yl)pyrimidin-2-yl)amino)piperidin-1-yl)ethan-1-one] |
| < 500 nM | CC(=O)N1CC[C@H](Nc2ncc(F)c(-c3cccc(-n4ccccc4=O)c3)n2)C1 [Compound 613, (S)-1-(3-(2-((1-acetylpyrrolidin-3-yl)amino)-5-fluoropyrimidin-4-yl)phenyl)pyridin-2(1H)-one] |
